# Test results published in ChEMBL document CHEMBL1150020, “Optical isomers of RP 64406: New potent antiglutamate agents” (1993).
# Test system: Rattus norvegicus
# Assay: Ability to protect against glutamate-induced convulsion in rat upon i.p. administration
# Assay type: functional
# [1] = Rattus norvegicus, ip, read-out: ED50
Structure (SMILES),ED50,ED50 [1]
C[S+]([O-])CCn1c(=N)sc2cc(OC(F)(F)F)ccc21 (stereo in doubt; 3),1.1 mg/kg,–
"C[S+]([O-])CCn1c(=N)sc2cc(OC(F)(F)F)ccc21 (single isomer, unassigned; (-))",–,1.6 mg/kg
CSCCn1c(=N)sc2cc(OC(F)(F)F)ccc21,–,1 mg/kg
Nc1nc2ccc(OC(F)(F)F)cc2s1 [RILUZOLE],–,3.2 mg/kg
"C[S+]([O-])CCn1c(=N)sc2cc(OC(F)(F)F)ccc21 (single isomer, unassigned; (+))",1 mg/kg,–
